Key:
[1] = Dose normalised AUC in dog after po administration; settings: in vivo
[2] = Dose normalised AUC in rat after po administration; settings: in vivo
[3] = Dose normalised AUC in monkey after po administration; settings: macaca, in vivo
[4] = Dose normalised AUC in human after po administration; settings: in vivo

## COc1nccc(-c2c(-c3ccc(F)cc3)ncn2C2CCNCC2)n1 [SB-242235]
[1]
  DNAUC: 147.59 kg·min/L
[2]
  DNAUC: 37.61 kg·min/L
[3]
  DNAUC: 115.9 kg·min/L
[4]
  DNAUC: 141 kg·min/L

## CCC1(C)CC(=O)NC1=O (centres undefined) [ETHOSUXIMIDE]
[1]
  DNAUC: 2166.68 kg·min/L
[2]
  DNAUC: 285.71 kg·min/L
[3]
  DNAUC: 2792.79 kg·min/L
[4]
  DNAUC: 6666.67 kg·min/L

## CC(C)(C)S(=O)(=O)C[C@@H](Cc1ccccc1)C(=O)N[C@@H](Cc1cnc[nH]1)C(=O)N[C@@H](CC1CCCCC1)[C@@H](O)[C@@H](O)C1CC1 [REMIKIREN]
[1]
  DNAUC: 0.63 kg·min/L
[2]
  DNAUC: 0.25 kg·min/L
[3]
  DNAUC: 0.14 kg·min/L
[4]
  DNAUC: 0.2 kg·min/L

## O=C(O)C(Cl)c1ccc(C2CCCCC2)c(Cl)c1 (centres undefined) [FENCLORAC]
[1]
  DNAUC: 2454.09 kg·min/L
[2]
  DNAUC: 630.2 kg·min/L
[3]
  DNAUC: 491.65 kg·min/L
[4]
  DNAUC: 2651.33 kg·min/L

## CC(C)NCC(O)COc1cccc2ccccc12 (centres undefined) [PROPRANOLOL]
[1]
  DNAUC: 8.32 kg·min/L
[2]
  DNAUC: 37.8 kg·min/L
[3]
  DNAUC: 1.32 kg·min/L
[4]
  DNAUC: 17.33 kg·min/L

## O=P(O)(O)C(Sc1ccc(Cl)cc1)P(=O)(O)O [TILUDRONIC ACID]
[1]
  DNAUC: 129.6 kg·min/L
[2]
  DNAUC: 37.2 kg·min/L
[3]
  DNAUC: 171.6 kg·min/L
[4]
  DNAUC: 286.32 kg·min/L

## CC(C)N(CCC(C(N)=O)(c1ccccc1)c1ccccn1)C(C)C (centres undefined) [DISOPYRAMIDE]
[1]
  DNAUC: 101.6 kg·min/L
[2]
  DNAUC: 6.07 kg·min/L
[3]
  DNAUC: 2.2 kg·min/L
[4]
  DNAUC: 550.48 kg·min/L

## O=C(O)CCc1nc(-c2ccccc2)c(-c2ccccc2)o1 [OXAPROZIN]
[1]
  DNAUC: 3.2 kg·min/L
[2]
  DNAUC: 0.04 kg·min/L
[3]
  DNAUC: 2.85 kg·min/L
[4]
  DNAUC: 9.07 kg·min/L

## CC1(C)O[C@@H]2C[C@H]3[C@@H]4C[C@H](F)C5=CC(=O)C=C[C@]5(C)[C@H]4[C@@H](O)C[C@]3(C)[C@]2(C(=O)CO)O1 [FLUNISOLIDE]
[1]
  DNAUC: 63.58 kg·min/L
[2]
  DNAUC: 107.25 kg·min/L
[3]
  DNAUC: 2.1 kg·min/L
[4]
  DNAUC: 16.42 kg·min/L

## CC(C)(C)NC(=O)[C@@H]1CN(Cc2cccnc2)CCN1C[C@@H](O)C[C@@H](Cc1ccccc1)C(=O)N[C@H]1c2ccccc2C[C@H]1O.O [INDINAVIR]
[1]
  DNAUC: 46.1 kg·min/L
[2]
  DNAUC: 3.13 kg·min/L
[3]
  DNAUC: 5.34 kg·min/L
[4]
  DNAUC: 52.98 kg·min/L

## CCCCN1C[C@H](O)[C@@H](O)[C@H](O)[C@H]1CO [MIGLUSTAT]
[1]
  DNAUC: 204 kg·min/L
[2]
  DNAUC: 16.6 kg·min/L
[3]
  DNAUC: 166.88 kg·min/L
[4]
  DNAUC: 358.71 kg·min/L

## CC1=NC(=O)C(CCN(C(C)C)C(C)C)(c2ccccc2)C2CCCCN12 (centres undefined) [ACTISOMIDE]
[1]
  DNAUC: 71.7 kg·min/L
[2]
  DNAUC: 14.49 kg·min/L
[3]
  DNAUC: 26.46 kg·min/L
[4]
  DNAUC: 51.51 kg·min/L

## Cc1nc(=O)c(C#N)c(NCc2cccnc2)[nH]1 [PELRINONE]
[1]
  DNAUC: 84 kg·min/L
[2]
  DNAUC: 20 kg·min/L
[3]
  DNAUC: 39.2 kg·min/L
[4]
  DNAUC: 152.38 kg·min/L

## CC(=O)[C@H]1CC[C@H]2[C@@H]3CC[C@H]4C[C@](C)(O)CC[C@]4(C)[C@H]3CC[C@]12C [GANAXOLONE]
[1]
  DNAUC: 77.25 kg·min/L
[2]
  DNAUC: 0.76 kg·min/L
[3]
  DNAUC: 1.39 kg·min/L
[4]
  DNAUC: 5.65 kg·min/L

## CC[C@H]1OC(=O)[C@H](C)[C@@H](O[C@H]2C[C@@](C)(OC)[C@@H](O)[C@H](C)O2)[C@H](C)[C@@H](O[C@@H]2O[C@H](C)C[C@H](N(C)C)[C@H]2O)[C@](C)(O)C[C@@H](C)C(=O)[C@H](C)[C@@H](O)[C@]1(C)O [ERYTHROMYCIN]
[1]
  DNAUC: 31.38 kg·min/L
[2]
  DNAUC: 1.88 kg·min/L
[3]
  DNAUC: 1.32 kg·min/L
[4]
  DNAUC: 36.8 kg·min/L

## Cc1cccc(C)c1NC(=O)NCCCNC(C)C [RECAINAM]
[1]
  DNAUC: 72.4 kg·min/L
[2]
  DNAUC: 6.3 kg·min/L
[3]
  DNAUC: 48 kg·min/L
[4]
  DNAUC: 98.57 kg·min/L

## NS(=O)(=O)c1cc(C(=O)O)c(NCc2ccco2)cc1Cl [FUROSEMIDE]
[1]
  DNAUC: 57.84 kg·min/L
[2]
  DNAUC: 44.73 kg·min/L
[3]
  DNAUC: 43.2 kg·min/L
[4]
  DNAUC: 184.62 kg·min/L

## NS(=O)(=O)Cc1noc2ccccc12 [ZONISAMIDE]
[1]
  DNAUC: 1458 kg·min/L
[2]
  DNAUC: 663 kg·min/L
[3]
  DNAUC: 2097 kg·min/L
[4]
  DNAUC: 3030 kg·min/L

## CCCCCNC(=O)c1coc([C@H]2[C@@H](Cc3ccccc3CCC(=O)O)[C@@H]3CC[C@H]2O3)n1 [IFETROBAN]
[1]
  DNAUC: 9.48 kg·min/L
[2]
  DNAUC: 2.86 kg·min/L
[3]
  DNAUC: 13.02 kg·min/L
[4]
  DNAUC: 77.32 kg·min/L

## COc1ccc2c(c1)c(CC(=O)O)c(C)n2C(=O)c1ccc(Cl)cc1 [INDOMETHACIN]
[1]
  DNAUC: 793.3 kg·min/L
[2]
  DNAUC: 2056 kg·min/L
[3]
  DNAUC: 133.1 kg·min/L
[4]
  DNAUC: 488.62 kg·min/L

## COC(=O)C1=C(C)NC(C)=C(C(=O)OCCN(C)Cc2ccccc2)C1c1cccc([N+](=O)[O-])c1 (centres undefined) [NICARDIPINE]
[1]
  DNAUC: 2 kg·min/L
[2]
  DNAUC: 1.1 kg·min/L
[3]
  DNAUC: 3.84 kg·min/L
[4]
  DNAUC: 10 kg·min/L

## CS(=O)(=O)Nc1ccc(F)c([C@@H](O)CN)c1 [NS-49]
[1]
  DNAUC: 382.2 kg·min/L
[2]
  DNAUC: 33.3 kg·min/L
[3]
  DNAUC: 165.6 kg·min/L
[4]
  DNAUC: 306 kg·min/L

## COc1ccc(C(CN(C)C)C2(O)CCCCC2)cc1 (centres undefined) [VENLAFAXINE]
[1]
  DNAUC: 48 kg·min/L
[2]
  DNAUC: 1.97 kg·min/L
[3]
  DNAUC: 1.8 kg·min/L
[4]
  DNAUC: 1 kg·min/L

## Cc1cnc(NC(=O)C2=C(O)c3ccccc3S(=O)(=O)N2C)s1 [MELOXICAM]
[1]
  DNAUC: 6870 kg·min/L
[2]
  DNAUC: 4998 kg·min/L
[3]
  DNAUC: 2856 kg·min/L
[4]
  DNAUC: 6655.81 kg·min/L

## COC(=O)C1=C(C)NC(C)=C(C(=O)OCC(C)C)C1c1ccccc1[N+](=O)[O-] (centres undefined) [NISOLDIPINE]
[1]
  DNAUC: 2.64 kg·min/L
[2]
  DNAUC: 0.49 kg·min/L
[3]
  DNAUC: 0.84 kg·min/L
[4]
  DNAUC: 1.2 kg·min/L

## Cc1c(C)c2c(c(C)c1O)CCC(C)(COc1ccc(CC3SC(=O)NC3=O)cc1)O2 (centres undefined) [TROGLITAZONE]
[1]
  DNAUC: 61.2 kg·min/L
[2]
  DNAUC: 13.44 kg·min/L
[3]
  DNAUC: 34.08 kg·min/L
[4]
  DNAUC: 80.71 kg·min/L

## COc1c(N2C[C@@H]3CCCN[C@@H]3C2)c(F)cc2c(=O)c(C(=O)O)cn(C3CC3)c12 [MOXIFLOXACIN]
[1]
  DNAUC: 245.95 kg·min/L
[2]
  DNAUC: 18.35 kg·min/L
[3]
  DNAUC: 45.09 kg·min/L
[4]
  DNAUC: 372.73 kg·min/L

## C#C[C@]1(O)CC[C@H]2[C@@H]3CCc4cc(O)ccc4[C@H]3CC[C@@]21C [ETHINYL ESTRADIOL]
[1]
  DNAUC: 4.5 kg·min/L
[2]
  DNAUC: 0.46 kg·min/L
[3]
  DNAUC: 0.68 kg·min/L
[4]
  DNAUC: 75.45 kg·min/L

## O=C(O)c1cn(C2CC2)c2cc(N3CCNCC3)c(F)cc2c1=O [CIPROFLOXACIN]
[1]
  DNAUC: 32.75 kg·min/L
[2]
  DNAUC: 9.36 kg·min/L
[3]
  DNAUC: 85.2 kg·min/L
[4]
  DNAUC: 77.03 kg·min/L

## CN(C)CCCC1(c2ccc(F)cc2)OCc2cc(C#N)ccc21 (centres undefined) [CITALOPRAM]
[1]
  DNAUC: 8.75 kg·min/L
[2]
  DNAUC: 5.88 kg·min/L
[3]
  DNAUC: 9.85 kg·min/L
[4]
  DNAUC: 200 kg·min/L

## COCCc1ccc(OCC(O)CNC(C)C)cc1 (centres undefined) [METOPROLOL]
[1]
  DNAUC: 15.8 kg·min/L
[2]
  DNAUC: 58 kg·min/L
[3]
  DNAUC: 8.33 kg·min/L
[4]
  DNAUC: 25.33 kg·min/L

## CC[C@H]1OC(=O)[C@H](C)[C@@H](O[C@H]2C[C@@](C)(OC)[C@@H](O)[C@H](C)O2)[C@H](C)[C@@H](O[C@@H]2O[C@H](C)C[C@H](N(C)C)[C@H]2O)[C@](C)(O)C[C@@H](C)CN(C)[C@H](C)[C@@H](O)[C@]1(C)O [AZITHROMYCIN]
[1]
  DNAUC: 140.4 kg·min/L
[2]
  DNAUC: 11.42 kg·min/L
[3]
  DNAUC: 17.52 kg·min/L
[4]
  DNAUC: 33.15 kg·min/L

## Cn1cc(/C=C2/C(=O)N3C(C(=O)O)=CS[C@H]23)nn1
[1]
  DNAUC: 3.33 kg·min/L
[2]
  DNAUC: 0.29 kg·min/L
[3]
  DNAUC: 0.45 kg·min/L
[4]
  DNAUC: 5 kg·min/L

## CCn1cc(C(=O)O)c(=O)c2cc(F)c(N3CCN(C)CC3)cc21 [PEFLOXACIN]
[1]
  DNAUC: 120 kg·min/L
[2]
  DNAUC: 67.2 kg·min/L
[3]
  DNAUC: 259.2 kg·min/L
[4]
  DNAUC: 505.26 kg·min/L

## O=C1CN=C(c2ccccc2Cl)c2cc([N+](=O)[O-])ccc2N1 [CLONAZEPAM]
[1]
  DNAUC: 24 kg·min/L
[2]
  DNAUC: 3.47 kg·min/L
[3]
  DNAUC: 36.8 kg·min/L
[4]
  DNAUC: 590 kg·min/L

## Cc1ncc2n1-c1ccc(Cl)cc1C(c1ccccc1F)=NC2 [MIDAZOLAM]
[1]
  DNAUC: 23.79 kg·min/L
[2]
  DNAUC: 1.64 kg·min/L
[3]
  DNAUC: 4.17 kg·min/L
[4]
  DNAUC: 66.67 kg·min/L

## CC(C)n1c(/C=C/C(O)CC(O)CC(=O)O)c(-c2ccc(F)cc2)c2ccccc21 (centres undefined) [FLUVASTATIN]
[1]
  DNAUC: 82.11 kg·min/L
[2]
  DNAUC: 195 kg·min/L
[3]
  DNAUC: 5.37 kg·min/L
[4]
  DNAUC: 49.3 kg·min/L

## O=C(c1ccccc1)c1ccc2n1CCC2C(=O)O (centres undefined) [KETOROLAC]
[1]
  DNAUC: 1352.94 kg·min/L
[2]
  DNAUC: 285 kg·min/L
[3]
  DNAUC: 1912.26 kg·min/L
[4]
  DNAUC: 1256.47 kg·min/L

## N[C@@H]1[C@H]2CN(c3nc4c(cc3F)c(=O)c(C(=O)O)cn4-c3ccc(F)cc3F)C[C@@H]12 [TROVAFLOXACIN]
[1]
  DNAUC: 44.25 kg·min/L
[2]
  DNAUC: 51 kg·min/L
[3]
  DNAUC: 120.6 kg·min/L
[4]
  DNAUC: 540 kg·min/L

## CN1CCN(c2c(F)cc3c(=O)c(C(=O)O)cn(CCF)c3c2F)CC1 [FLEROXACIN]
[1]
  DNAUC: 618 kg·min/L
[2]
  DNAUC: 152.4 kg·min/L
[3]
  DNAUC: 133.54 kg·min/L
[4]
  DNAUC: 432.41 kg·min/L

## CC(=O)NCCOC(=O)C(Oc1cccc(C(F)(F)F)c1)c1ccc(Cl)cc1 (centres undefined) [HALOFENATE]
[1]
  DNAUC: 390.13 kg·min/L
[2]
  DNAUC: 9183.98 kg·min/L
[3]
  DNAUC: 3918.28 kg·min/L
[4]
  DNAUC: 15037.59 kg·min/L

Source: ChEMBL document CHEMBL1614631, “Comparative evaluation of oral systemic exposure of 56 xenobiotics in rat, dog, monkey and human” (Xenobiotica, 2005)
